Test results as given in patent publication US6849626B2, “Aza-amino acid derivatives (factor Xa inhibitors 15)” (Merck Patent GmbH, priority 2000, dated 2005).

| melting point [°C] | Structure (SMILES) |
| --- | --- |
| 215 to 216 | CCCN(Nc1cccc(C(=N)N)c1)C(=O)Nc1ccc(-c2ccccc2S(N)(=O)=O)cc1 [Compound 1, 4′-[3-(3-amidinophenyl)-2-propylcarbazoylamino]biphenyl-2-sulfonamide] |
| > 300 | CCCN(Nc1cccc(C(=N)N)c1)C(=O)NNc1ccc(-c2ccccc2S(C)(=O)=O)cc1 [Compound 15, 1-(3-amidinophenyl)-4-(2′-methylsulfonylbiphenyl-4-ylamino)-2-propylsemicarbazide] |
